From paper PMC11477000, “Enantioselective Binding of Proton Pump Inhibitors to Alpha1-Acid Glycoprotein and Human Serum Albumin—A Chromatographic, Spectroscopic, and In Silico Study” (International Journal of Molecular Sciences, 2024) come the findings set out here.

Data set [1] has as its target T1, human serum albumin (HSA) (Homo sapiens, UniProt P02768). As to the kind of experiment: van 't Hoff thermodynamic analysis on HSA column. The following applies: for Δ(ΔG°) / Δ(ΔH°) / Δ(ΔS°): pH 7, 95:5 buffer:IPA, 10–30 °C. Format: binding. The protocol:
The temperature effect was investigated at pH 7 and a 95:5 buffer:IPA eluents ratio, between 10 and 30 °C on both columns. […] The determination of thermodynamic parameters can provide valuable insights into the process of enantiodiscrimination, including its mechanistic aspects. The applied classical van ’t Hoff methodology postulates the existence of solely enantioselective interaction sites on the stationary phase. Nonetheless, it should be emphasized that a more realistic approach would encompass both enantioselective and non-enantioselective interactions. The isoenantioselective temperatures (Tiso) were calculated by dividing Δ(ΔH°) by Δ(ΔS°). At this temperature, enthalpy and entropy compensations negate each other, resulting in the coelution of the two enantiomers and no separation. The Q values (Q = Δ(ΔH°)/T × Δ(ΔS°)298K) were used for visualizing the relative contribution of enthalpic and entropic terms to the free energy of adsorption. If the Q values were smaller than 1, the enantioseparation was controlled by entropy to a higher extent.
Classical van ’t Hoff analysis was applied to determine the thermodynamic parameters. Van ’t Hoff plots were constructed by plotting the natural logarithm of the retention factor as a function of the inverse of the absolute temperature (thermodynamic temperature) over a temperature range of 10–30 °C:(5) […]
In the equation, R represents the universal gas constant, T represents the absolute temperature in Kelvin, and k represents the retention factor of the enantiomers. ΔH° stands for the standard enthalpy, while ΔS° represents the standard entropy change of transfer of the solute from the mobile phase to the stationary phase. Φ is the phase ratio of the column. If ΔH° remains constant within the selected temperature range, a linear relationship can be observed between lnk and 1/T. The slope of this relationship is −ΔH°/R, and the intercept is ΔS°/R + ln Φ. Since the value of the phase ratio is rarely known, ΔS°* values (ΔS°* = ΔS° + Rln Φ) are often used to account for the uncertainty in Φ. Similarly, the difference in the change of standard enthalpy, Δ(ΔH°), and standard entropy, Δ(ΔS°), for the two enantiomers was calculated as follows:(6) lnα=−ΔΔH°/RT+ΔΔS°/R

Data set [2] concerns α1-acid glycoprotein (AGP). As to the kind of experiment: HPLC on AGP-based chiral stationary phase (ChromTech Chiral-AGP column). Format: binding, human. The following applies: 10 mM pH 7 phosphate buffer, 25 °C. The procedure:
HPLC using a protein-based chiral stationary phase is a fully automated method for obtaining rapid information about the binding of compounds to the respective proteins. Enantioseparation occurs in the case of unequal binding constants of the individual enantiomers to the immobilized proteins, thus allowing enantioselective binding to be characterized even when a racemic mixture was injected. As a preliminary step, the enantiospecific binding was investigated on columns containing AGP and HSA in various alcohol:buffer mixtures. A pH 7 phosphate buffer was employed as the aqueous part of the mobile phase, while for the organic part, three different alcohols were evaluated. […]
Chromatographic measurements were carried out on two separate HPLC systems. The AGP binding study was performed on a Waters 2695e chromatographic system paired with a Waters 2996 PDA detector, controlled by Empower 3 FR5 (Waters Corp., Milford, MA, USA), while the HSA binding study was performed on an Agilent 1100 HPLC system, consisting of an inline degasser (G1322A), a quaternary pump (G1311A), an automatic injector (G1329A) paired with sample thermostat (G1330A), a column thermostat (G1316A), and a diode array detector (G1315A) with Agilent Chemstation B04.03-SP2 software (Agilent, Bronnwald, Germany). For the binding studies, two protein-based chiral stationary phases were utilized. The chromatographic binding study for AGP was conducted on a ChromTech Chiral-AGP column (150 mm × 4.0 mm; ChromTech Ltd., Congleton, UK), while the binding study for HSA was performed on a Daicel Chiralpak HSA column (50 mm × 4.0 mm; Daicel Corp., Osaka, Japan). The detection wavelength was 210 nm for all measurements. The stock solutions of PPIs were prepared at a concentration of 1 mg/mL in MeOH. Subsequent dilutions were prepared using water. The injected samples were mixed and diluted from the stock solutions. The final concentration for the eutomer was 0.2 mg/mL, and for the distomer, it was 0.1 mg/mL. A volume of 2 μL was injected. To mitigate the instability of PPIs in aqueous solutions, the samples were kept at a temperature of 4 °C.

Data set [3] concerns the target T1, human serum albumin (HSA). Description: Displacement chromatography on HSA column with warfarin and ibuprofen as competitors. Format: binding. The following applies: IPA:10 mM pH 7 phosphate buffer 1:99, 25 °C. The protocol:
For identification of the binding site of HSA, a displacement chromatography and fluorescence displacement study were performed. In the case of chromatography, to the mobile phase, increasing concentrations of the competitors, warfarin and ibuprofen, that are known to bind to specific binding sites on HSA, Sudlow site I and Sudlow site II, respectively, were added. In the case of the fluorescence displacement study, the fluorescence quenching data of the PPI-HSA system in the presence of warfarin and ibuprofen were investigated.
(Chromatographic parameter: Column temperature: 25 °C,
mobile phase: IPA : 10 mM pH 7 sodium phosphate buffer 1:99, flow rate: 0.7 mL/min, detection

Where [4] appears, read: difference between the two enantiomers.

T1 sequence (P02768 25-609): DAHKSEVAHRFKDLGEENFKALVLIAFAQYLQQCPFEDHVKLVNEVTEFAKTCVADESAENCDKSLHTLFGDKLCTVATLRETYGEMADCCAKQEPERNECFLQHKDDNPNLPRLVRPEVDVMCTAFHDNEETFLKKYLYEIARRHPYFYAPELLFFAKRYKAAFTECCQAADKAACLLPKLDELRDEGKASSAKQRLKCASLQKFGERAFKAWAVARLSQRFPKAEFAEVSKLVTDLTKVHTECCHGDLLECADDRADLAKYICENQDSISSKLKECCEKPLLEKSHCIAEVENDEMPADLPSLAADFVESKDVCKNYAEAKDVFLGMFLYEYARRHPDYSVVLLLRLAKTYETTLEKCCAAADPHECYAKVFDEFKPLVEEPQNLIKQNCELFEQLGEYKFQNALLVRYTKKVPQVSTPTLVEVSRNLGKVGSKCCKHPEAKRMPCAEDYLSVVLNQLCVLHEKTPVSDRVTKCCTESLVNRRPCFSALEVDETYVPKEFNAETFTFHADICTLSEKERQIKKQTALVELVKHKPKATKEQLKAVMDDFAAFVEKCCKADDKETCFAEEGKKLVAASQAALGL

`Cc1c(OCC(F)(F)F)ccnc1C[S+]([O-])c1nc2ccccc2[nH]1` (stereo not shown) [Lansoprazole, lansoprazole] displayed a Q in data set [1] (Q = Δ(ΔH°)/T × Δ(ΔS°)298K) of 1.4. Moreover, in data set [1] (setting [4]), the “Δ(ΔG°)” value was -0.7 kJ/mol. In addition, the “Δ(ΔH°)” value in data set [1] (setting [4]) is -2.8 kJ/mol. Also, the “Δ(ΔS°)” value in data set [1] (setting [4]) is given as −7.2 J/molK. Further, the Tiso isoenantioselective temperature in data set [1] (Δ(ΔH°)/Δ(ΔS°)) is 128.9 °C. Also, the “k1 retention factor (first-eluting enantiomer)” value (“k1 retention factor” below) in data set [2] (2.5% IPA) is on record as 15.75; in data set [2] (5% EtOH) it was 14.52; in data set [2] (5% IPA) it was 6.88; in data set [2] (5% MeOH) it was 22.63; in data set [2] (7.5% EtOH), 8.24; in data set [2] (7.5% IPA), 4.00. The “k1 retention factor” value turned out to be 14.63 in data set [2] (7.5% MeOH); 5.13 in data set [2] (10% EtOH); 2.67 in data set [2] (10% IPA); 9.96 in data set [2] (10% MeOH); 1.95 in data set [2] (12.5% IPA); 2.54 in data set [2] (15% EtOH). Besides, the “k1 retention factor” value is on record as 1.48 in data set [2] (15% IPA) and 7.02 in data set [2] (15% MeOH). Further, the “k2 retention factor (second-eluting enantiomer)” value (“k2 retention factor” for short) is given as 19.61 in data set [2] (2.5% IPA); 18.43 in data set [2] (5% EtOH); 9.12 in data set [2] (5% IPA); 28.55 in data set [2] (5% MeOH); 10.64 in data set [2] (7.5% EtOH); 5.28 in data set [2] (7.5% IPA). In addition, the “k2 retention factor” value came out at 18.79 in data set [2] (7.5% MeOH); 6.62 in data set [2] (10% EtOH); 3.47 in data set [2] (10% IPA); 12.56 in data set [2] (10% MeOH); 2.47 in data set [2] (12.5% IPA); 3.21 in data set [2] (15% EtOH). The “k2 retention factor” value in data set [2] (15% IPA) was found to be 1.83; in data set [2] (15% MeOH) it was 8.75.

With `Cc1c(OCC(F)(F)F)ccnc1C[S@@+]([O-])c1nc2ccccc2[nH]1` [R-lansoprazole, dexlansoprazole], in data set [1] (single enantiomer), the “Δ(ΔG°)” value was -5.8 kJ/mol. For the same compound, the “Δ(ΔH°)” value in data set [1] (single enantiomer) was -8.4 kJ/mol. Besides, the “Δ(ΔS°)” value in data set [1] (single enantiomer) is on record as −8.7 J/molK. Besides, the k retention factor was 18.27 in data set [3] (ibuprofen 0 mM); 13.98 in data set [3] (ibuprofen 0.01 mM); 10.41 in data set [3] (ibuprofen 0.05 mM); 7.60 in data set [3] (ibuprofen 0.1 mM); 18.27 in data set [3] (warfarin 0 mM); 14.84 in data set [3] (warfarin 0.01 mM). Besides, the k retention factor is given as 12.07 in data set [3] (warfarin 0.05 mM) and 10.51 in data set [3] (warfarin 0.1 mM).

Regarding `Cc1c(OCC(F)(F)F)ccnc1C[S@+]([O-])c1nc2ccccc2[nH]1` [S-lansoprazole], the “Δ(ΔG°)” value in data set [1] (single enantiomer) is -6.6 kJ/mol. Besides, the “Δ(ΔH°)” value in data set [1] (single enantiomer) is -11.2 kJ/mol. For the same compound, the “Δ(ΔS°)” value in data set [1] (single enantiomer) is listed as −15.9 J/molK. For the same compound, the k retention factor is 11.17 in data set [3] (ibuprofen 0 mM); 9.81 in data set [3] (ibuprofen 0.01 mM); 8.51 in data set [3] (ibuprofen 0.05 mM); 7.60 in data set [3] (ibuprofen 0.1 mM); 11.17 in data set [3] (warfarin 0 mM); 9.03 in data set [3] (warfarin 0.01 mM). The k retention factor in data set [3] (warfarin 0.05 mM) came out at 8.13; in data set [3] (warfarin 0.1 mM), 7.44.
